From PubChem BioAssay AID1963846 (Molecular Pharmacology Branch, DTP, NCI, 2024) come the findings set out here.

The experiment has as its system 454973-116-R2-J3-PDC complex spheroid viability. Nature of the experiment: Anticancer human tumor 454973-116-R2-J3-PDC patient-derived pancreatic carcinoma cell line growth inhibition [POLQ]. The following applies: for viability, T/C: stronger effect = lower value. As to the method: Multicellular complex tumor spheroid response to Polymerase (POL) inhibitors (novobiocin, ART-558, RP6685) in combination with a variety of drugs and investigational agents in selected tumor cell lines
The POL inhibitors (novobiocin, ART-558, and RP6685) were evaluated both individually and in combination with standard of care and investigational anticancer small molecules within a complex spheroid model of solid tumors. . Complex spheroids include a stromal component modeled by human endothelial cells (HUVEC) and fibroblasts modeled by human mesenchymal stem cells (MSCs). The concentration ranges selected for each drug and investigational agent were based upon clinically achievable concentrations if the clinical Cmax of the agent was known.
Compounds. The drugs and investigational agents: novobiocin (NSC847541), ART-558 (NSC835418), RP-6685 (NSC848927), peposertib (NSC802822), ceralasertib (NSC780249), elimusertib (NSC800525), camonsertib (NSC841442), AZD-1390 (NSC803789), olaparib (NSC753686), talazoparib (NSC767125), rucaparib (NSC756644), sotorasib (NSC818433), MRTX-1133 (NSC836407), SN-38 (NSC673596), topotecan (NSC609699), epotoside (NSC141540), doxorubicin (NSC123127), gemcitabine (NSC613327), 5-fluorouracil (NSC19893), paclitaxel (NSC125973), vemurafenib (NSC761431), MSA-2 (NSC828583), SN-011 (NSC837082), adavosertib (NSC754352), prexasertib (NSC758257), carboplatin (NSC241240) and oxaliplatin (NSC266046), were obtained from the National Cancer Institute (NCI) Developmental Therapeutics Program Chemical Repository (21). The FDA-approved anticancer drug set is available from the Developmental Therapeutics Program at https://dtp.cancer.gov/organization/dscb/obtaining/. […] The stock solutions were prepared in dimethyl sulfoxide (DMSO, Sigma-Aldrich, St. Louis, MO, cat. D2650), except for the platinum compounds which were prepared in saline (Quality Biological, Gaithersburg, MD, cat. 114-055-101), at 800-fold the tested concentration and stored at -70 degrees C prior to their use. All drugs and investigational agents were tested over a range starting from a high concentration at or near the clinical Cmax and decreasing in half-log increments. If the clinical Cmax for an agent had not been determined, the highest concentration tested was 10 microM, except for SN-38, which was tested at a high concentration of 1 microM.
Cell Culture. All cells were maintained in an incubator at 37 degrees C and 5% CO2 with 95% humidity. The PDC lines were cultured according to standard operating procedures established by the NCI PDMR (https://pdmr.cancer.gov). Table 3 of the manuscript, lists the cell lines along with the number of the three cell types plated to form the mct-spheroids and media for tumor cell growth. After thawing, all PDC lines, except 997537-175-T-J1-PDC and 415267-285-R-J2-PDC, were cultured in Matrigel-coated flasks prepared with a working solution of 1X Ham's F-12 nutrient mix, without supplementation (Thermo Fisher Scientific, cat. 11765054), 100 U/mL penicillin-streptomycin (Thermo Fisher Scientific, cat. 15140122), and 2.5% Matrigel (Corning Inc., Corning, NY, cat. 354248) for the first three passages. The two PDC lines 997537-175-T-J1-PDC and 415267-285-R-J2-PDC were cultured on uncoated flasks. The 857933-349-R-J2-PDC line was cultured in 6C/Colon 1B media containing advanced DMEM/F-12 (Thermo Fisher Scientific, cat. 12634028), 10 mM HEPES (Thermo Fisher Scientific, cat. 15630080), 1X GlutaMAX supplement (Thermo Fisher Scientific, cat. 35050061), 0.1 mg/mL primocin (InvivoGen, San Diego, CA, cat. ant-pm-2), 10% defined fetal bovine serum, heat inactivated (HyClone Laboratories Inc., Logan, UT, cat. SH30070.03HI), 50% L-WRN conditioned media (ATCC, cat. CRL-3276), 1.25 mM N-Acetyl-L-cysteine (Sigma-Aldrich, cat. A9165), 10 mM nicotinamide (Sigma-Aldrich, cat. N0636), 1X B-27 supplement (Thermo Fisher Scientific, cat. 17504044), 1X N-2 supplement (Thermo Fisher Scientific, cat. […]

The structures appear in SMILES notation. Several values for one entry are separate records, joined by “and”; a condition that tells them apart may be missing. Identical values can stand only once.
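Also: spheroids exposed to drugs for seven days before measurement.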
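For viability, T/C in this document: percent viability relative to DMSO vehicle control wells taken as 100%.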

In general, viability, T/C refers to the result in the treated group divided by that in the control group, in per cent. The IC50 is the midpoint of a concentration-inhibition curve. Take `C=CCn1c(=O)c2cnc(Nc3ccc(N4CCN(C)CC4)cc3)nc2n1-c1cccc(C(C)(C)O)n1`: the viability, T/C by setting is: (compound 0.00316 µM) 108% and 106% and 102%; (compound 0.01 µM) 96.7% and 98.2% and 99.6%; (compound 0.0316 µM) 110% and 99.7% and 102%; (compound 0.1 µM) 105% and 104% and 98.3%; (compound 0.316 µM) 86.9% and 73.9% and 63.5%; (compound 1 µM) 17.3% and 10.9% and 9.18%. Further, the IC50 (curve of compound) is 583 nM and 490 nM and 421 nM.

On to `CC(=O)O[C@H]1C(=O)[C@@]2(C)[C@H]([C@H](OC(=O)c3ccccc3)[C@]3(O)C[C@H](OC(=O)[C@H](O)[C@@H](NC(=O)c4ccccc4)c4ccccc4)C(C)=C1C3(C)C)[C@]1(OC(C)=O)CO[C@@H]1C[C@@H]2O`, for which the viability, T/C is 6.41% and 6.34% and 12.2% (compound 0.00949 µM); 4.28% and 4.53% and 8.36% (compound 0.03 µM); 6.3% and 3.83% and 4.72% (compound 0.0949 µM); 4.7% and 3.78% and 4.01% (compound 0.3 µM); 4.44% and 4.41% and 4.87% (compound 0.949 µM); 4.64% and 4.24% and 4.62% (compound 3 µM). For the same compound, the half-maximal inhibitory concentration (IC50) (curve of compound) is less than 9.49 nM.

For the compound `CC1COCCN1c1cc(-c2ccnn2C)c2ccnc(-c3ccn[nH]3)c2n1` (stereo not given), the viability, T/C (compound 0.0316 µM) was 91.5% and 96.9% and 97.4%; the viability, T/C (compound 0.1 µM) was 75.7% and 73.8% and 55.7%; the viability, T/C (compound 0.316 µM) was 42.8% and 37.2% and 20.8%; the viability, T/C (compound 1 µM) is 20.7% and 22.5% and 12.6%; the viability, T/C (compound 3.16 µM) is 21.3% and 24.4% and 12.3%; the viability, T/C (compound 10 µM) is 25% and 30% and 17.2%. Also, where the note is “curve of compound”, the IC50 is 238 nM and 208 nM and 121 nM.

Regarding `CC1COCCN1c1cc(C2(S(C)(=N)=O)CC2)nc(-c2ccnc3[nH]ccc23)n1` (stereo not given), the viability, T/C runs as follows: (compound 0.0316 µM) 112% and 105% and 108%; (compound 0.1 µM) 105% and 106% and 102%; (compound 0.316 µM) 108% and 109% and 103%; (compound 1 µM) 100% and 95.8% and 92%; (compound 3.16 µM) 79.7% and 65.6% and 90.4%; (compound 10 µM) 32.3% and 23.4% and 33.7%. The IC50 (curve of compound) was 6520 nM and 4820 nM and 7120 nM.

Consider `CCCS(=O)(=O)Nc1ccc(F)c(C(=O)c2c[nH]c3ncc(-c4ccc(Cl)cc4)cc23)c1F`, for which the viability, T/C was 111% and 107% and 105% (compound 0.0316 µM); 107% (2×) and 110% (compound 0.1 µM); 108% (2×) and 115% (compound 0.316 µM); 109% and 111% and 104% (compound 1 µM); 116% and 110% and 112% (compound 3.16 µM); 33% and 37.7% and 50.1% (compound 10 µM). In addition, under “curve of compound”, the IC50 is 7770 nM and 8190 nM and > 10000 nM.

As for `CC[C@@]1(O)C(=O)OCc2c1cc1n(c2=O)Cc2cc3c(CN(C)C)c(O)ccc3nc2-1`, the viability, T/C is 120% and 108% and 112% (compound 0.000316 µM); 101% and 93.5% and 105% (compound 0.001 µM); 97% and 95.4% and 103% (compound 0.00316 µM); 81.7% and 76.8% and 84.1% (compound 0.01 µM); 20% and 13.8% and 24.2% (compound 0.0316 µM); 17.1% and 10.5% and 14.8% (compound 0.1 µM). In addition, the IC50 (curve of compound) is 18.2 nM and 16.3 nM and 19.3 nM.

Consider `CCc1c2c(nc3ccc(O)cc13)-c1cc3c(c(=O)n1C2)COC(=O)[C@]3(O)CC`, for which the viability, T/C runs as follows: (compound 0.00316 µM) 34.1% and 23.5% and 36.2%; (compound 0.01 µM) 12.7% and 10.6% and 14.8%; (compound 0.0316 µM) 13% (2×) and 7.69%; (compound 0.1 µM) 5.61% and 3.22% and 6.06%; (compound 0.316 µM) 2.43% and 3.16% and 3.18%; (compound 1 µM) 1.57% and 1.32% and 2.53%. Moreover, the IC50 (curve of compound) was less than 3.16 nM.

With `CNCc1ccc(-c2[nH]c3cc(F)cc4c3c2CCNC4=O)cc1`, the viability, T/C reads like this: (compound 0.0316 µM) 103% and 105% and 99%; (compound 0.1 µM) 91.9% and 102% and 93%; (compound 0.316 µM) 97% and 98.4% and 112%; (compound 1 µM) 100% and 106% and 97.7%; (compound 3.16 µM) 111% and 101% and 102%; (compound 10 µM) 81.6% and 96.5% and 83.7%. The IC50 (curve of compound) is greater than 10000 nM.

Consider `COC1C(OC(N)=O)C(O)C(Oc2ccc3c(O)c(NC(=O)c4ccc(O)c(CC=C(C)C)c4)c(=O)oc3c2C)OC1(C)C` (stereo not given), for which the viability, T/C is 106% [middle of 13 runs] (compound 0.0316 µM); 111% [middle of 13 runs] (compound 0.1 µM); 105% [middle of 13 runs] (compound 0.316 µM); 102% [middle of 13 runs] (compound 1 µM); 102% [middle of 13 runs] (compound 3.16 µM); 109% [middle of 13 runs] (compound 10 µM). The IC50 (compound alone, run of 10/31/2023) was greater than 10000 nM.

In the case of `COc1cc(C2c3cc4c(cc3C(OC3OC5COC(C)OC5C(O)C3O)C3COC(=O)C23)OCO4)cc(OC)c1O` (stereo not given), the viability, T/C was 102% and 100% and 103% (compound 0.0316 µM); 94.6% and 100% and 97.6% (compound 0.1 µM); 87.3% and 85.4% and 94.8% (compound 0.316 µM); 64.4% and 47.4% and 68.4% (compound 1 µM); 27% and 15.3% and 23.4% (compound 3.16 µM); 11% and 6.79% and 10.2% (compound 10 µM). In addition, for the setting “curve of compound”, the IC50 was 1530 nM and 921 nM and 1600 nM.
